# How the values were obtained:
# [1] = system: Mia-Paca2 lines (human pancreatic cancer cells); experiment: Anti-proliferative activity, WST1 colorimetric test, Mia-Paca2 cells; format: cell-based; details: MIA PaCa-2, 96 hours treatment, up to 10 μM, read-out: IC50 on the cell proliferation of the Mia-Paca2 lines
# Procedure: (§1) ii) Characterization of Anti-Proliferative Activity:
# (§2) By way of example, the effect of a treatment by the compounds of the examples described previously on two lines of human Mia-Paca2 and DU145 cells will be studied. The cell lines DU145 (human prostate cancer cells) and Mia-PaCa2 (human pancreatic cancer cells) were acquired from the American Tissue Culture Collection (Rockville, Md., USA). The cells placed in 80 μl of Dulbecco's Modified Eagle medium (Gibco-Brl, Cergy-Pontoise, France) completed with 10% foetal calf serum inactivated by heating (Gibco-Brl, Cergy-Pontoise, France), 50,000 units/l of penicillin and 50 mg/l streptomycin (Gibco-Brl, Cergy-Pontoise, France), and 2 mM of glutamine (Gibco-Brl, Cergy-Pontoise, France) were seeded on a 96-well plate on day 0. The cells were treated on day 1 for 96 hours at increasing concentrations of each of the compounds to be tested up to 10 μM. At the end of the of this period, quantification of the cell proliferation is evaluated by a colorimetric test based on the cleavage of the tetrazolium salt WST1 by the mitochondrial dehydrogenases in the viable cells leading to the formation of formazan (Boehringer Mannheim, Meylan, France). These tests are carried out in duplicate with 8 determinations per concentration tested. For each compound to be tested, the values included in the linear part of the sigmoid were retained for linear regression analysis and used in order to estimate the inhibitory concentration IC50. The products are solubilized in dimethylsulphoxide (DMSO) at to 10^−2M and finally used in culture with 0.1% DMSO.
# [2] = system: DU-145 lines (human prostate cancer cells); experiment: Anti-proliferative activity, WST1 colorimetric test, DU145 cells; format: cell-based; details: 96 hours treatment, up to 10 μM, read-out: IC50 on the cell proliferation of the DU-145 lines
# Procedure: as §1, §2
# [3] = target: T1, purified recombinant enzyme Cdc25-C (MBP-Cdc25C) (Homo sapiens, UniProt P30307); experiment: Measurement of the phosphatase activity of the purified recombinant enzyme Cdc25C (OMFP dephosphorylation, fluorescence); format: biochemical; details: OMFP 500 μM, 4 hours at 30° C.
# T1 construct: made in house
# T1 sequence (P30307 1-473): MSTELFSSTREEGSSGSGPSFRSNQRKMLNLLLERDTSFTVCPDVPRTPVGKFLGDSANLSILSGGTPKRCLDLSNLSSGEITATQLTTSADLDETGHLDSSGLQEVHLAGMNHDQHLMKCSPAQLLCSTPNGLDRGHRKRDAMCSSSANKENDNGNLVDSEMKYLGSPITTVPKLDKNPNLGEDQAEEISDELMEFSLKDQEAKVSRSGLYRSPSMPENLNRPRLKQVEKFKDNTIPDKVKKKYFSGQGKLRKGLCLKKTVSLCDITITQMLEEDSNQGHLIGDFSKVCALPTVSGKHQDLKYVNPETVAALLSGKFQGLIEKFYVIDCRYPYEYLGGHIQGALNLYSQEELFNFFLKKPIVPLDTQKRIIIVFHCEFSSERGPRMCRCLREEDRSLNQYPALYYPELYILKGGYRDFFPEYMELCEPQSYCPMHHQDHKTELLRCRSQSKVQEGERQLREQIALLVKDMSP
# Procedure: i) Measurement of the Phosphatase Activity of the Purified Recombinant Enzyme Cdc25C
# The phosphatase activity of the protein MBP-Cdc25C is evaluated by the dephosphorylation of 3-O-methylfluorescein-phosphate (OMFP) to 3-O-methylfluorescein (OMF) with a determination of the fluorescence at 475 nm of the reaction product. This test makes it possible to identify inhibitors of the recombinant enzyme cdc25. The preparation of the fusion protein MBP-Cdc25C is described in the Patent Application PCT WO 01/44467.
# The reaction is carried out in 384-well plate format at a final volume of 50 μl. The protein MBP-Cdc25C (prepared as described above) is preserved in the following elution buffer: 20 mM Tris-HCl pH 7.4; 250 mM NaCl; 1 mM EDTA; 1 mM of dithiothreitol (DTT); 10 mM maltose. It is diluted to a concentration of 60 μM in the following reaction buffer: 50 mM Tris-HCl pH 8.2; 50 mM NaCl; 1 mM DTT; 20% glycerol. Measurement of the background noise is carried out with the buffer without the addition of the enzyme. The products are tested at decreasing concentrations starting from 40 μM. The reaction is initiated by the addition of an OMFP solution at 500 μM final (prepared extemporaneously from a 12.5 mM stock solution in 100% DMSO (Sigma #M2629)). After 4 hours at 30° C. in a single-use 384-well plate, the fluorescence measured at OD 475 nm is read using a Victor^2 plate reader (EGG-Wallac). The determination of the concentration inhibiting the enzyme reaction by 50% is calculated from three independent experiments. Only the values contained in the linear part of the sigmoid are retained for linear regression analysis.
melting point [°C],IC50 [1] [µM],IC50 [2] [µM],IC50 [3] [µM],Compound
141 to 142,≤ 10,≤ 10,≤ 1,"COc1ccc(NC(=O)c2nc3c(s2)C(=O)C=C(NCCCN(C)CCCNC2=CC(=O)c4sc(C)nc4C2=O)C3=O)cc1 [Example 41, N-(4-methoxyphenyl)-5-{[3-(methyl{3-[(2-methyl-4,7-dioxo-4,7-dihydro-1,3-benzothiazol-5-yl)amino]propyl}amino)propyl]amino}-4,7-dioxo-4,7-dihydro-1,3-benzothiazole-2-carboxamide]"
121 to 122,≤ 10,≤ 10,≤ 1,"Cc1nc2c(s1)C(=O)C(NCCCN(C)CCCNC1=CC(=O)c3sc(C(=O)N4CCN(C(=O)C5CCCO5)CC4)nc3C1=O)=CC2=O (stereo not drawn) [Example 42, 5-{[3-(methyl{3-[(2-methyl-4,7-dioxo-4,7-dihydro-1,3-benzothiazol-6-yl)amino]propyl}amino)propyl]amino}-2-{[4-(tetrahydrofuran-2-ylcarbonyl)piperazin-1-yl]carbonyl}-1,3-benzothiazole-4,7-dione]"
107 to 108,≤ 10,≤ 10,≤ 1,"CCNC(=O)c1nc2c(s1)C(=O)C=C(NCCCN(C)CCCNC1=CC(=O)c3sc(C)nc3C1=O)C2=O [Example 43, N-ethyl-5-{[3-(methyl{3-[(2-methyl-4,7-dioxo-4,7-dihydro-1,3-benzothiazol-5-yl)amino]propyl}amino)propyl]amino}-4,7-dioxo-4,7-dihydro-1,3-benzothiazole-2-carboxamide]"

# Source: patent US8017637B2, “Inhibitors of cdc phosphatases” (Ipsen Pharma S.A.S., priority 2004, dated 2011)
